“And” between values parts separate entries of the source, which are not always exact repeats. Identical values can stand only once. Like-named read-outs stand apart in the source and are kept apart here.
Experiments:
Gal-3 [1] = biological target: T1, Gal-3 (Homo sapiens, UniProt P17931); conditions: cited from earlier work; for Gal-3 selectivity ratio Kd (Gal-3)/Kd (Gal-8N): selectivity for Gal-8N over Gal-3 (fold)
T1 construct: made in house

Gal-8N [2] = biological target: T2, Gal-8N (Homo sapiens, UniProt O00214); assay: isothermal titration calorimetry (ITC), binding to Gal-8N; conditions: for ΔΔH compared to 1: difference vs compound 1
T2 construct: consisting of residues 4-158 was produced by Lund Protein Production Platform; made in house; host or cells: E. coli TUNER(DE3)
T2 sequence (O00214 4-158): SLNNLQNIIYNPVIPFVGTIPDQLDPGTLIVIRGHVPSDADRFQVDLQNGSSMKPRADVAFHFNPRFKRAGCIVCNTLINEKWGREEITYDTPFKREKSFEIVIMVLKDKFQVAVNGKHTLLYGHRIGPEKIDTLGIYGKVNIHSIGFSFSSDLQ
Method: Isothermal titration calorimetry (ITC) experiments were conducted using a Microcal PEAQ-ITC isothermal titration calorimeter (Malvern Instruments, Malvern Panalytical Ltd) at 25 °C. Lyophilized Gal-8N was first dissolved in PBS buffer (with a 4.3 mM β-mercaptoethanol) with a pH = 7.4 and Gal-8N was dialyzed with a 0.5–3 mL Slide-A-Lyzer™ 7k MWCO Dialysis Cassette in the same buffer. To remove residual lactose, Gal-8N was additionally purified using Superdex 75 Increase column equilibrated in PBS with 5% DMSO. Fractions containing Gal-8N were collected and concentrated with Amicon® Ultra-0.5 Centrifugal Filter Device with a 10k MWCO to a final concentration of about 40 µM. A280 was measured using the NanoDrop^TM One Microvolume UV-VIS spectrophotometer and the concentration of Gal-8N was calculated (ε = 11460 L mol^−1 cm^−1 was used). 16 mM stock solutions of 1, 11, and 29 were prepared in pure DMSO. The 16 mM stock solutions were diluted to 800 μM with pure PBS and then to the final concentration of 560 μM (the final content of DMSO was 5%). Titrations were performed with 19 injections of Gal-8N inhibitors 1, 11 (560 μM) and 29 (800 μM) with a following settings: reference power = 10.0 µcal s^−1, feedback = high, stir speed = 750, Initial delay = 100 s, first spacing = 200 s, the other spacings = 150 s.
Raw thermograms were exported and integrated with the NITPIC (version 2.0.7)[43] and then analyzed with SEDPHAT (version 15.2)[44],[45]. Parameter and error analysis were performed using the Monte-Carlo approach for nonlinear regression with 1000 iterations as implemented in SEDPHAT.

[3] = biological target: T3, Gal-8N (galectin-8 N-terminal domain) (Homo sapiens, UniProt O00214); conditions: cited from earlier work
T3 construct: made in house
T3 sequence (O00214 19-152 limits assumed): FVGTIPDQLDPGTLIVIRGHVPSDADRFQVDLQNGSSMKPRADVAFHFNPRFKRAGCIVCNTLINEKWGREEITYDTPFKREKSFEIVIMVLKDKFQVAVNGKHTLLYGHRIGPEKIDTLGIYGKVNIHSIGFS

Gal-1 [4] = biological target: T4, Gal-1 (Homo sapiens, UniProt P09382); parameters: method as in PMID 34225180; conditions: cited from earlier work
T4 construct: made in house

Gal-8C [5] = biological target: T5, Gal-8C (Homo sapiens, UniProt O00214); parameters: method as in PMID 34225180; conditions: cited from earlier work
T5 construct: than to the C-terminal domain (Gal-8C)
T5 sequence (O00214 187-317 limits assumed): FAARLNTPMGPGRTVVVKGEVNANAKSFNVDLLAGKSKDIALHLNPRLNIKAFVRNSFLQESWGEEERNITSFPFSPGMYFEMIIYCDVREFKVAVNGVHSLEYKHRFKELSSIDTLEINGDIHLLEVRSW

[6] = biological target: T3, Gal-8N (galectin-8 N-terminal domain); assay: competitive fluorescence polarisation assay, Gal-8N; assay type: binding; conditions: competitive FP, mean ± SEM of n = 4 to 8, 20 °C; read-out: Kd Gal-8N
Method: (§1) Human galectins-1, -3, and -8N were expressed and purified as described previously[8],[23],[24]. Competitive fluorescence polarization assays were performed with a PHERAstar FS plate reader with software PHERAstar Mars version 2.10 R3 (BMG, Offenburg, Germany) and Tecan Spark multimode microplate reader (Tecan Trading AG, Switzerland), where a fluorescence anisotropy of fluorescent-tagged probes was measured by excitation at 485 nm and emission at 520 nm. Experiments were performed at 20 °C with Gal-1 at 0.5 µM, Gal-3 at 0.2 µM, and Gal-8N at 0.4 µM. Fluorescent probes used for experiments were 3,3′-dideoxy-3-[4-(fluorescein-5-yl-carbonylaminomethyl)-1H-1,2,3-triazol-1-yl]-3′-(3,5-di-methoxybenzamido)-1,1′-sulfanediyl-di-β-D-galactopyranoside at 0.02 µM for Gal-1 and -3 and 2-(fluorescein-5-yl-carbonylamino)ethyl β-D-galactopyranosyl(1-4)-2-acetamido-2-deoxy-β-D-glucopyranosyl(1–3)-β-D-galactopyranosyl(1–4)-β-D-glucopyranoside at 0.1 µM for Gal-8N in each well. Compounds were first dissolved in pure DMSO at 20 mM concentration and later diluted in 5% DMSO in PBS solution to 5-7 different concentrations. Each concentration was tested in duplicate. The highest inhibitor concentrations tested were 1.5 mM. The average values of Kd and SEM (standard error mean) were calculated from 4 to 8 duplicate measurements, showing 10–90% inhibition.

Gal-3 [7] = biological target: T1, Gal-3; assay: competitive fluorescence polarisation assay, Gal-3; assay type: binding; conditions: for Kd: competitive FP, mean ± SEM of n = 4 to 8, 20 °C, read-out: Kd Gal-3; for Gal-3 selectivity ratio Kd (Gal-3)/Kd (Gal-8N): ratio of FP Kd values
Method: as §1

Gal-1 [8] = biological target: T4, Gal-1; assay: competitive fluorescence polarisation assay, Gal-1; assay type: binding; conditions: for Kd: competitive FP, mean ± SEM of n = 4 to 8, 20 °C; for Gal-1 selectivity ratio Kd (Gal-1)/Kd (Gal-8N): ratio of FP Kd values
Method: as §1

Gal-8C [9] = biological target: T5, Gal-8C; assay: competitive fluorescence polarisation assay, Gal-8C; assay type: binding; conditions: for Kd: competitive FP, mean ± SEM of n = 4 to 8; for Gal-8C selectivity ratio Kd (Gal-8C)/Kd (Gal-8N): ratio of FP Kd values
Gal-8N [10] = biological target: T2, Gal-8N; assay: ligand efficiency (LE) and ligand-lipophilicity efficiency (LLE) calculations; conditions: for LLE: from Gal-8N Kd and clogP; for LE: from Gal-8N Kd and number of non-hydrogen atoms
[11] = 25 °C, PBS buffer, 1:1 binding model, n = 2

T4 sequence (P09382 whole entry): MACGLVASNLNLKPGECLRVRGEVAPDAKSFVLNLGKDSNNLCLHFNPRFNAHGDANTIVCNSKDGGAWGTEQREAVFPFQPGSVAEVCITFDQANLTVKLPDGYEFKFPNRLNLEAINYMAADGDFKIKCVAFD
T1 sequence (P17931 whole entry): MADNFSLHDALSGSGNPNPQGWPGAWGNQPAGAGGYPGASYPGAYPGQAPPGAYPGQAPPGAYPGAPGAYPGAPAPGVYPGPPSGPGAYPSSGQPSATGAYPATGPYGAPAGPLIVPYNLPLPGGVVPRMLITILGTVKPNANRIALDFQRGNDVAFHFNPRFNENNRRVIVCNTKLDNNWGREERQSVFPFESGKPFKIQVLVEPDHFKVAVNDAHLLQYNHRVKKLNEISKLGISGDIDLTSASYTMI

SMILES | Kd [6] [µM] | Kd (Gal-3 [7]) [µM] | Gal-3 selectivity ratio Kd (Gal-3)/Kd (Gal-8N) (Gal-3 [7]) | Kd (Gal-1 [8]) [µM] | Kd (Gal-8C [9]) [µM] | Gal-8C selectivity ratio Kd (Gal-8C)/Kd (Gal-8N) (Gal-8C [9]) | LLE (Gal-8N [10]) | LE (Gal-8N [10]) | Gal-1 selectivity ratio Kd (Gal-1)/Kd (Gal-8N) (Gal-1 [8]) | other results
O=C[C@H](O)[C@@H](O)[C@@H](O)[C@H](O)CO [D-galactose] | – | – | – | – | – | – | – | – | – | Kd (Gal-3 [1]; read-out: affinity for Gal-3): ~5000 µM
Cn1c(CO[C@@H]2[C@@H](O)[C@@H](Sc3ccc(Cl)c(Cl)c3)O[C@H](CO)[C@@H]2O)nc2ccc(C(=O)O)cc21 [Compound 1, reference compound] | – | – | – | – | – | – | – | – | – | -TΔS (Gal-8N [2]; [11]): 14 kJ/mol and 14 ± 13 kJ/mol; Kd (Gal-8N [2]; [11]): 5 µM; ΔG (Gal-8N [2]; [11]): -30.2 kJ/mol and -30.2 ± 0.6 kJ/mol; ΔH (Gal-8N [2]; [11]): -44 kJ/mol and -44 ± 12 kJ/mol; -TΔS (Gal-8N [2]; TRIS buffer): 19 kJ/mol; Kd (Gal-8N [2]; TRIS buffer): 4.5 µM; ΔG (Gal-8N [2]; TRIS buffer): -30.7 kJ/mol; ΔH (Gal-8N [2]; TRIS buffer): -50 kJ/mol; fold more potent than D-galactose (Gal-8N) [3]: ~ 5000 fold; Gal-3 selectivity ratio Kd (Gal-3)/Kd (Gal-8N) (Gal-3 [1]): 2.8; Gal-1 selectivity ratio Kd (Gal-1)/Kd (Gal-8N) (Gal-1 [4]): 72; Gal-8C selectivity ratio Kd (Gal-8C)/Kd (Gal-8N) (Gal-8C [5]): 422
Cn1c(CO[C@@H]2C=CO[C@H](CO)[C@@H]2O)nc2ccc(C(=O)O)cc21 [Compound 3] | – | – | – | – | – | – | – | – | – | Gal-3 selectivity ratio Kd (Gal-3)/Kd (Gal-8N) (Gal-3 [1]): 14
COC(=O)c1ccc(-n2cc(CO[C@@H]3[C@@H](OCc4nc5ccc(C(=O)O)cc5n4C)[C@@H](O)[C@@H](CO)O[C@@H]3Sc3ccc(Cl)c(Cl)c3)nn2)cc1 [Compound 15c] | 4.1 ± 0.33 | 23 ± 4.9 | 5.6 | 99 ± 3.1 | 350 ± 60 | 85 | 0.109 | 0.147 (kcal/mol)/heavy atom | 24 | –
O=C(O)[C@H](CC1CCCCC1)O[C@@H]1[C@@H](O)[C@@H](Sc2ccc(Cl)c(Cl)c2)O[C@H](CO)[C@@H]1O [Compound 2] | – | – | – | – | – | – | – | – | – | Kd [3]: 12 µM; Kd (Gal-3 [1]; Fig. 1, earlier inhibitors, read-out: Kd: galectin-3): 82 µM; selectivity over Gal-3 (Gal-3 [1]; Gal-8N over Gal-3): 6.8 fold
Cn1c(CO[C@H]2[C@@H](O)[C@@H](CO)O[C@H](Sc3ccc(Cl)c(Cl)c3)[C@@H]2OCc2cn(-c3cccc(C(=O)O)c3)nn2)nc2ccc(C(=O)O)cc21 [Compound 16b] | 0.65 ± 0.05 | 2.9 ± 0.4 | 4.5 | 37 ± 1.1 | 100 ± 2 | 154 | 1.11 | 0.173 (kcal/mol)/heavy atom | 57 | –
Cn1c(CO[C@H]2[C@@H](O)[C@@H](CO)O[C@H](Sc3ccc(Cl)c(Cl)c3)[C@@H]2OCc2cccc(Cl)c2)nc2ccc(C(=O)O)cc21 [Compound 8f] | 1.8 ± 0.18 | 5.8 ± 0.7 | 3.2 | 15 ± 1.3 | 225 ± 37 | 125 | -0.422 | 0.187 (kcal/mol)/heavy atom | 8.3 | –
COC(=O)c1ccccc1-n1cc(CO[C@@H]2[C@@H](OCc3nc4ccc(C(=O)O)cc4n3C)[C@@H](O)[C@@H](CO)O[C@@H]2Sc2ccc(Cl)c(Cl)c2)nn1 [Compound 15a] | 3.5 ± 0.37 | 4.7 ± 1 | 1.3 | 69 ± 9.5 | 355 ± 57 | 101 | 0.182 | 0.149 (kcal/mol)/heavy atom | 19.7 | –

Continued, in another order:

Kd [6] [µM] | Kd (Gal-3 [7]) [µM] | Gal-3 selectivity ratio Kd (Gal-3)/Kd (Gal-8N) (Gal-3 [7]) | Kd (Gal-1 [8]) [µM] | Kd (Gal-8C [9]) [µM] | Gal-8C selectivity ratio Kd (Gal-8C)/Kd (Gal-8N) (Gal-8C [9]) | LLE (Gal-8N [10]) | LE (Gal-8N [10]) | Gal-1 selectivity ratio Kd (Gal-1)/Kd (Gal-8N) (Gal-1 [8]) | SMILES | other results
0.8 ± 0.09 | 1.4 ± 0.2 | 1.75 | 10 ± 0.71 | 390 ± 14 | 488 | 2.01 | 0.226 (kcal/mol)/heavy atom | – | C#CCO[C@@H]1[C@@H](OCc2nc3ccc(C(=O)O)cc3n2C)[C@@H](O)[C@@H](CO)O[C@@H]1Sc1ccc(Cl)c(Cl)c1 [Compound 11] | -TΔS (Gal-8N [2]; [11]): 28 ± 9 kJ/mol and 28 kJ/mol; Kd (Gal-8N [2]; [11]): 1.3 µM; ΔG (Gal-8N [2]; [11]): -33.5 ± 0.5 kJ/mol and -33.5 kJ/mol; ΔH (Gal-8N [2]; [11]): -61 ± 8 kJ/mol and -61 kJ/mol; ΔΔH compared to 1 (Gal-8N [2]): –17 kJ mol^−1; ΔΔH compared to 29 (Gal-8N [2]; difference vs compound 29): –4 kJ mol^−1
0.5 ± 0.03 | 3.3 ± 0.2 | 6.6 | 49 ± 3.6 | 449 ± 39 | 898 | 2.84 | 0.227 (kcal/mol)/heavy atom | 98 | Cn1c(CO[C@H]2[C@@H](O)[C@@H](CO)O[C@H](Sc3ccc(Cl)c(Cl)c3)[C@@H]2OCC(=O)O)nc2ccc(C(=O)O)cc21 [Compound 29] | -TΔS (Gal-8N [2]; [11]): 22 ± 3 kJ/mol and 22 kJ/mol; Kd (Gal-8N [2]; [11]): 0.6 µM; ΔG (Gal-8N [2]; [11]): -35.3 ± 0.4 kJ/mol and -35.3 kJ/mol; ΔH (Gal-8N [2]; [11]): -57 ± 3 kJ/mol and -57 kJ/mol; ΔΔH compared to 1 (Gal-8N [2]): –13 kJ mol^−1
1.3 ± 0.05 | 4.5 ± 0.7 | 3.5 | 16 ± 0.8 | 358 ± 29 | 275 | 2.08 | 0.231 (kcal/mol)/heavy atom | 12.3 | CO[C@@H]1[C@@H](OCc2nc3ccc(C(=O)O)cc3n2C)[C@@H](O)[C@@H](CO)O[C@@H]1Sc1ccc(Cl)c(Cl)c1 [Compound 32] | –
1.5 ± 0.13 | 3.7 ± 0.5 | 2.5 | 14 ± 0.82 | 320 ± 12 | 213 | 0.382 | 0.195 (kcal/mol)/heavy atom | 9.4 | Cn1c(CO[C@H]2[C@@H](O)[C@@H](CO)O[C@H](Sc3ccc(Cl)c(Cl)c3)[C@@H]2OCc2ccccc2)nc2ccc(C(=O)O)cc21 [Compound 8a] | –
